Columns and labels:
[1] = biological target: Cryptosporidium parvum lysyl t-RNA synthetase (Cp KRS) (Cryptosporidium parvum, UniProt Q5CR27); assay: In vitro inhibition of Cryptosporidium lysyl tRNA synthetase (KRS), Biomol green phosphate detection; type: biochemical; settings: 300 nM CpKRS, 500 μM ATP, 1.2 mM L-Lysine, 8 h room temperature; read-out: C. parvum KRS pIC50 (converted)
Source text: The protein expression and purification method for recombinant CpKRS was described in Baragana et aL, PNAS, 2019, 116 (4), 7015-7020 and will be summarised below.
The C. parvum KRS had 45 residues removed at the N-terminus. All amplicons were cloned into the pAVA0421 expression vector using the ligation independent cloning (LIC) method. Recombinant plasmids were transformed into Rosetta BL21(DE3) competent cells and plated on LB agar plates with ampicillin, carbenicillin, and chloramphenicol selection. Clones were expressed using previously reported autoinduction methods and scaled to 2-litre cultures in a shake flasks. Cell pellets were harvested and lysed with 100 mM HEPES/150 mM NaCl/5% Glycerol/20 mM imidazole/0.5 mM TCEP pH 7.5/DNase/Complete inhibitor tablets) using a Cell Disrupter (Constant Systems) at 30 KPSI and centrifuged at 40,000 g for 20 min remove cell debris. The supernatant was loaded onto a 5 ml HiTrap Ni HP column that had been equilibrated with Buffer A (100 mM HEPES/150 mM NaCl/5% Glycerol/20 mM imidazole/0.5 mM TCEP pH 7.5) at 5 ml/min using an AKTA Pure system. Once loaded the column was washed with 10 column volumes of buffer A. A 5% step of Buffer B (100 mM HEPES/150 mM NaCl/5% Glycerol/500 mM imidazole/0.5 mM TCEP pH 7.5) was then used to wash off His-rich contaminating proteins. A linear gradient of 5-50% B was used to elute the protein. Approximately 287 mg of protein was present in the fractions containing the CpKRS protein. The sample was then concentrated to approximately 30 ml, passed through a 0.2 μm filter, before loading onto a XK26/60 Superdex 200 column using an AKTA Pure system at 4° C. at 2 ml/min 10 ml at a time. The eluted protein was pooled then frozen at −80° C. The concentration of the protein was 1.3 mg/ml. Sometimes the protein was cleaved with PreScission protease overnight, a second Ni column performed in flow through mode to removed uncleaved protein. GST beads were then added to remove the PreScission Protease. The protein was then gel filtered as descripted above.
Assay Method for Measurement of In Vitro Inhibition of Cryptosporidium lysyl tRNA Synthetase (KRS)
Potency of compounds was determined in 10 points dose-response inhibition curves. Compounds were transferred into 384-well clear bottom plates (Greiner Bio-One, 781101) using an Echo 550 acoustic dispenser (Labcyte). Using an automatic liquid dispenser, 50 μL reaction mixes were prepared by adding 25 μL of substrate mix into all wells followed by the addition of 25 μL enzyme mix into compounds and no inhibition control wells (final reaction: 100 mM HEPES, pH 7.4, 20 mM MgCl2, 1 mM DTT, 500 μM ATP, 1.2 mM L-Lysine, 300 nM CpKRS and 0.5 U/mL Pyrophosphatase). Complete inhibition control reactions were performed in the absence of enzyme and the plates were incubated at room temperature for 8 h. Reactions were stopped by the addition of Biomol green (50 μL: Enzo Life Sciences) with the amount of free phosphate detected by measuring absorbance (650 nm) after 20 min further incubation (BMG Pherastar plate reader). Counter screen assays to eliminate direct inhibition of pyrophosphatase were performed using 0.5 U/mL pyrophosphatase and 3 μM pyrophosphate as substrate in the same assay buffer (100 mM HEPES, pH 7.4, 20 mM MgCl2, 1 mM DTT) for 8 hours at room temperature. Biomol green was added and incubated for 20 min before detection as above. Samples were run in duplicate and data was processed and analysed using ActivityBase (IDBS).

C. parvum Iowa strain = assay: Cryptosporidiosis NOD SCID gamma mouse model, fecal oocyst shedding by quantitative PCR; type: in vivo, Cryptosporidium parvum; settings: NOD SCID gamma mice, average reduction in oocyst shedding compared to untreated vehicle
Source text: The in vivo measurement of the potential efficacy of compounds of formula (I) in a cryptosporidium mouse model has been carried out following the method described in Antimicrob. Agents Ch., 2018, 62, 4, e01505-17, and which is summarised below. The cryptosporidiosis NOD SCID gamma mouse model was run as follows: Male NOD SCID gamma mice (NOD.Cg-Prkdc^scid II2rg^tm1Wjt/SzJ, Jackson Labs) were infected approximately 2 weeks post weaning with 10^5 C. parvum Iowa strain oocysts by oral gavage. Four mice were used per experimental group. This establishes a chronic, asymptomatic infection of the small intestine, cecum, and biliary tree. Fecal parasite shedding is monitored by quantitative PCR to amplify C. parvum DNA. One week after infection (which is the timing with which shedding becomes uniformly detected), compounds are dosed by oral gavage. Treatment continued for seven days total. The number of oocysts per milligram of stool was measured for each mouse on day 8 (1 day after completion of the last dose) and day 15 […] (7 days after the completion of the last dose). Average oocyst concentrations were calculated for each group of mice. Log reduction is the average reduction in oocyst shedding compared to untreated vehicle. These experiments were run in accordance with the method of C. D. Huston et al, Antimicrob. Agents Ch., 2018, 62, 4, e01505-17.

Sequence of Cryptosporidium parvum lysyl t-RNA synthetase (Cp KRS) (Q5CR27 entry or part of it): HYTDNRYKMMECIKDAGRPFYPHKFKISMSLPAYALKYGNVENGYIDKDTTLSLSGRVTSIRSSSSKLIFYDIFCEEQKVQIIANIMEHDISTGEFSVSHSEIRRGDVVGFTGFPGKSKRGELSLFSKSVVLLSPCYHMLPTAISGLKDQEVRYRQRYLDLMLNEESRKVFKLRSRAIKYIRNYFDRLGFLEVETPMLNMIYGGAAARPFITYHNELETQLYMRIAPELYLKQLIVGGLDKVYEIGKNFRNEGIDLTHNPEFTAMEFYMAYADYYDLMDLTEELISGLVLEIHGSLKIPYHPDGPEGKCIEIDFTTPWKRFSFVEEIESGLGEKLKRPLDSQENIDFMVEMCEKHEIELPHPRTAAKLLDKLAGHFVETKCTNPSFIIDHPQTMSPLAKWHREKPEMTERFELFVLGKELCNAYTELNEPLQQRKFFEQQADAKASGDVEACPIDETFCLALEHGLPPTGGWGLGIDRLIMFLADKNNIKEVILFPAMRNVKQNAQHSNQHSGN

SMILES	IC50 [1] [nM]	Log Reduction (day 8) (C. parvum Iowa strain; 10 mg/kg P.O. B.I.D. 7 days)	Log Reduction (day 15) (C. parvum Iowa strain; 10 mg/kg P.O. B.I.D. 7 days)	Log Reduction (day 8) (C. parvum Iowa strain; 50 mg/kg P.O. B.I.D. 7 days)	Log Reduction (day 15) (C. parvum Iowa strain; 50 mg/kg P.O. B.I.D. 7 days)	Log Reduction (day 8) (C. parvum Iowa strain; 20 mg/kg P.O. B.I.D. 7 days)	Log Reduction (day 15) (C. parvum Iowa strain; 20 mg/kg P.O. B.I.D. 7 days)	Log Reduction (day 8) (C. parvum Iowa strain; 30 mg/kg P.O. B.I.D. 7 days)	Log Reduction (day 15) (C. parvum Iowa strain; 30 mg/kg P.O. B.I.D. 7 days)	Log Reduction (day 8) (C. parvum Iowa strain; 40 mg/kg P.O. B.I.D. 7 days)	Log Reduction (day 15) (C. parvum Iowa strain; 40 mg/kg P.O. B.I.D. 7 days)
Nc1nc2c(c(C(F)(F)F)n1)C(=O)N(CC1CCCC3(CC3)C1)C2 (racemic) [Compound 4, 2-amino-6-(spiro[2.5]octan-5-ylmethyl)-4-(trifluoromethyl)-6,7-dihydro-5H-pyrrolo[3,4-d]pyrimidin-5-one]	2510	1.3	1.0	3.4	2.5	–	–	–	–	–	–
Nc1nc2c(c(C(F)(F)F)n1)C(=O)N(C[C@@H]1CCC[C@H](C(F)(F)F)C1)C2 [Compound 1, 2-amino-4-(trifluoromethyl)-6-(((1R,3S)-3-(trifluoromethyl)cyclohexyl)methyl)-6,7-dihydro-5H-pyrrolo[3,4-d]pyrimidin-5-one]	794	3.0	1.0	3.4	3.5	3.1	0.7	2.9	2.2	2.6	2.9
Cc1nc(N)nc2c1C(=O)N(C[C@@H]1CCC[C@H](C(F)(F)F)C1)C2 [Compound 2, 2-amino-4-methyl-6-(((1R,3S)-3-(trifluoromethyl)cyclohexyl)methyl)-6,7-dihydro-5H-pyrrolo[3,4-d]pyrimidin-5-one]	794	1.8	0.8	–	–	–	–	2.7	2.4	–	–
Nc1nc2c(c(C(F)F)n1)C(=O)N(C[C@@H]1CCC[C@H](C(F)(F)F)C1)C2 [Compound 3, 2-amino-4-(difluoromethyl)-6-(((1R,3S)-3-(trifluoromethyl)cyclohexyl)methyl)-6,7-dihydro-5H-pyrrolo[3,4-d]pyrimidin-5-one]	1000	2.4	1.0	–	–	–	–	2.8	1.6	–	–
